For series [1], the system named is LTB4-mediated CD11b upregulation on human neutrophils. Put plainly: LTB4-mediated CD11b upregulation on human neutrophils (flow cytometry, anti-CD11b-FITC). The format is cell-based. The procedure: The following Assay method was used to evaluate the effects of 3 compounds for LTB4-mediated CD11b upregulation on human neutrophils:
Note: The Assay procedure described herein was modeled after a previously published method(viz., Prostaglandins, Leukot, Essent. Fatty Acids. 46:265-270. 1992, Biochem. Pharmacol. 49:1683-1690. 1995), the disclosure of which is incorporated herein by reference.
Approximately 1-2 mg of each compound was weighed and diluted to 1 mM in neat dimethyl sulphoxide (DMSO). These stocks were then diluted (using “doubling” dilutions) in assay buffer.
The assay buffer used throughout the studies consisted of Hanks Balanced Salts Solution (HBSS) with added 0.5% bovine serum albumin, low endotoxin (ICN Biomedicals Catalog #16-980-49). After dissolving the BSA in the HBSS, the buffer was membrane-filtered (0.2 μ) before use.
Human blood was drawn into 3×10 ml EDTA-K3 Vacutainer tubes, which were pooled and mixed in a 50 ml, blue cap polypropylene tube. Three ml portions of Mono-Poly Resolving medium (MPRM; ICN #16-980-49) were dispensed into 4 separate 13×100 glass disposable tubes. An additional 0.3 ml of PBS (phosphate buffered saline) was added to each tube and mixed with the MPRM by vigorous vortexing. Exactly 3.5 ml of the blood was carefully layered on top of the four MPRM-water mixtures. The tubes were gradually accelerated to 400×g and spun at this speed for 30 min at room temperature. Tubes were removed from the centrifuge and both the plasma and top cell (mononuclear) layers were removed and discarded. The second layer of cells was carefully collected, pooled and washed with assay buffer. The collected neutrophil cell preparation was then spun at 400×g for 5 min and re-washed once again. The cells were resuspended in assay buffer and counted using a Cell-Dyn 1600 cell counter (Abbott Diagnostics Co.). They were then resuspended in buffer at 9×10^6 cells/ml and held briefly for addition in a later step of the assay.
LTB4, (Biomol; ETOH stock @148.5 μM) was diluted to a 3.9 μM stock in assay buffer by dilution of 10 μl ETOH stock+371 μl assay buffer, mixed well and further diluted 1:100 (100 μl+9.9 ml buffer) to make a use stock of 39 nm in buffer for later use. The final concentration of LTB4 (3 nM) was determined after several experimental runs.
Exactly 10 μl of each putative compound/dilution and 10 μl of anti-CD11b-FITC (FITC=Fluorescein Isothiocyanate; Biosource Intl., #AHS1148) was carefully added to the bottom of 12×75 mm polypropylene tubes (Falcon #2063) as determined by the experimental design. Following this, 100 μl of the human neutrophil preparation (9E6/ml) was added and mixed well by vortexing. The compound/cell mixtures were incubated together for 15 minutes at room temperature. Following this incubation, 10 μl of diluted LTB4 stock was added (to make 3 nM final LTB4 concentration), mixed by vortexing and incubated in a 37° C. shaking water bath for 30 min. Following this the tubes were immediately placed on ice for 10 minutes. Following this 1 ml of diluted BD FACS Lyse (Becton Dickinson Fluorescense Activated Cell Sorting Lyse) was added to the tubes and vortexed. 10 minutes later the tubes were spun at 400×g at room temperature. After centrifugation, the tubes were aspirated and re-suspended in 1.0 ml of 1% paraformaldehyde solution.
The samples were then analyzed for fluorescence intensity (linear scale) using an EPICS XL flow cytometer and the “Mo-1 Isolated Neutrophil” protocol.
The mean fluorescence intensity (MFI) for each sample was computed using WinList software and expressed as percentage of maximum MFI.Microsoft Excel and further graphed and analyzed using linear regression.
(A flow cytometer gives signals particle by particle.)

The mark [2] stands for this setting: Homo sapiens, Neutrophil, isolated human neutrophils, 3 nM LTB4, semicolons separate individual assay determinations, read-out: CD11b/CD18 IC50.
The mark [3] stands for this setting: Homo sapiens, Neutrophil, read-out: CD11b/CD18 IC50 (nM), isolated human neutrophils, 3 nM LTB4, semicolons separate individual assay determinations.
Setting [4] is: read-out: CD11b/CD18 IC50, isolated human neutrophils, 3 nM LTB4, semicolons separate individual assay determinations, sodium salt.
Where [5] appears, read: isolated human neutrophils, 3 nM LTB4, semicolons separate individual assay determinations, read-out: CD11b/CD18 IC50.

The record followed here is patent US6797723B1, “Heterocycle substituted diphenyl leukotriene antagonists” (Eli Lilly and Company, priority 1999, dated 2004).

Structures are written as SMILES. Values joined by “and” are separate entries in the source; they are usually repeats but may differ in a detail not shown here. Identical values can stand only once. Counter-ions that a name gives are not always drawn. Like-named read-outs stand apart in the source and are kept apart here.

By melting point is commonly meant the temperature of the solid-liquid transition.

Turning to `CCCc1c(OCCCOc2cc(O)c(-c3ccsc3)cc2CC)cccc1Oc1ccccc1C(=O)O` [Example 17, 2-{3-[3-(2-Ethyl-5-hydroxy-4-thiophen-3-yl-phenoxy)propoxy]-2-propyl-phenoxy}benzoic acid hydrate], the IC50 is 11 nM in series [1] (setting [2]); 5.6 nM and 8 nM in series [1] (isolated human neutrophils, 3 nM LTB4, semicolons separate individual assay determinations, hydrate, read-out: CD11b/CD18 IC50).
Regarding `CCCc1c(OCCCOc2cc(O)c(-c3c(C)noc3C)cc2CC)cccc1Oc1ccccc1C(=O)O` [Example 12, 2-(3-{3-[4-(3,5-Dimethylisoxazol-4-yl)-2-ethyl-5-hydroxyphenoxy]propoxy}-2-propylphenoxy)benzoic acid sodium salt], the IC50 worked out at 10000 nM in series [1] (setting [3]) and 5700 nM in series [1] (setting [4]).
Regarding `CCCc1c(OCCCOc2cc(O)c(-c3cnn(C)c3)cc2CC)cccc1Oc1ccccc1C(=O)O` [Example 10, 2-(3-{3-[2-ethyl-5-hydroxy-4-(1-methyl-1H-pyrazol-4-yl)-phenoxy]propoxy}-2-propylphenoxy)benzoic acid], the IC50 in series [1] (setting [5]) was 14 nM and 4.4 nM and 8.3 nM.
As to `CCCc1c(OCCCOc2cc(O)c(-c3cnn[nH]3)cc2CC)cccc1Oc1ccccc1C(=O)O` [Example 6], the IC50 in series [1] (setting [2]) was determined as 260 nM.
With `CCCc1c(OCCCOc2cc(O)c(-c3ccno3)cc2CC)cccc1Oc1ccccc1C(=O)O` [Example 5, 2-{3-[3-(2-ethyl-5-hydroxy-4-isoxazol-5-yl-phenoxy)propoxy]-2-propylphenoxy}benzoic acid], the IC50 in series [1] (setting [2]) was found to be 175 nM; in series [1] (setting [5]), 223 nM.
As for `CCCc1c(OCCCOc2cc(O)c(-c3ccc(F)cc3)cc2CC)cccc1Oc1ccccc1C(=O)O` [Compound A, reference compound], the IC50 in series [1] (Homo sapiens, Neutrophil, comparison compounds, isolated human neutrophils, 3 nM LTB4, A = average of 3 tests, read-out: IC-50 (nM) ± SEM) came out at 1.7 ± 0.25 nM.
On to `CCCc1c(OCCCOc2cc(O)c(-c3nccs3)cc2CC)cccc1Oc1ccccc1C(=O)O` [Example 11, 2-{3-[3-(2-Ethyl-5-hydroxy-4-thiazol-2-yl-phenoxy)propoxy]-2-propyl-phenoxy}benzoic acid], for which, in series [1] (setting [5]), the IC50 was 620 nM and 2560 nM and 1010 nM.
As to `CCCc1c(OCCCOc2cc(O)c(-c3ccn[nH]3)cc2CC)cccc1Oc1ccccc1C(=O)O` [Example 4, 2-(3-{3-[2-Ethyl-5-hydroxy-4-(2H-pyrazol-3-yl)phenoxy]propoxy}-2-propyl-phenoxy)benzoic acid], the IC50 stood at 74 nM in series [1] (setting [2]) and 117 nM in series [1] (setting [5]).
Taken in the same sequence, the figures for `CCCc1c(OCCCOc2cc(O)c(-c3cscn3)cc2CC)cccc1Oc1ccccc1C(=O)O` [Example 3, 2-{3-[3-(2-Ethyl-5-hydroxy-4-thiazol-4-yl-phenoxy)propoxy]-2-propyl-phenoxy}benzoic acid] were 353 nM and 339 nM.
Turning to `CCCc1c(OCCCOc2cc(O)c(-c3ccsc3)cc2CC)cccc1Oc1ccccc1C(=O)O` (hydrate or solvate) [Example 17, 2-{3-[3-(2-Ethyl-5-hydroxy-4-thiophen-3-yl-phenoxy)propoxy]-2-propyl-phenoxy}benzoic acid hydrate], the melting point was 90 to 95 °C (dec.).
On the same count and under the same terms, the value for `CCCc1c(OCCCOc2cc(O)c(C3CCOC3)cc2CC)cccc1Oc1ccccc1C(=O)[O-].[Na+]` (stereo not shown) (hydrate or solvate) [Example 15, 2-(3-{3-[2-Ethyl-5-hydroxy-4-(tetrahydrofuran-3-yl)phenoxy]propoxy}-2-propylphenoxy)benzoic acid sodium salt hemihydrate] was 67 to 71 °C.
On to `CCCc1c(OCCCOc2cc(O)c(-c3cnc[nH]3)cc2CC)cccc1Oc1ccccc1C(=O)O` [Example 2, 2-(3-{3-[2-Ethyl-5-hydroxy-4-(3H-imidazol-4-yl)phenoxy]propoxy}-2-propyl-phenoxy)benzoic acid hydrochloride], for which, in series [1] (setting [2]), the IC50 came out at 5880 nM.
For `CCCc1c(OCCCOc2cc(O)c(-c3ccco3)cc2CC)cccc1Oc1ccccc1C(=O)O` [Example 13, 2-{3-[3-(2-Ethyl-4-furan-2-yl-5-hydroxyphenoxy)propoxy]-2-propylphenoxy}-benzoic acid sodium salt], the IC50 in series [1] (setting [3]) came to 39 nM; in series [1] (setting [4]), 54 nM.
`CCCc1c(OCCCOc2cc(O)c(-n3cccc3)cc2CC)cccc1Oc1ccccc1C(=O)OC` [Example 7, 2-{3-[3-(2-ethyl-5-hydroxy-4-pyrrol-1-yl-phenoxy)propoxy]-2-propyl-phenoxy}benzoic acid methyl ester]: the values for the IC50 in series [1] (setting [2]) and in series [1] (setting [5]) were 2020 nM and 3790 nM, respectively.
`CCCc1c(OCCCOc2cc(O)c(-c3cocn3)cc2CC)cccc1Oc1ccccc1C(=O)O` [Example 1, 2-{3-[3-(2-Ethyl-5-hydroxy-4-oxazol-4-yl-phenoxy)propoxy]-2-propyl-phenoxy}benzoic acid]: the IC50 in series [1] (setting [2]) is 480 nM.
On to `CCCc1c(OCCCOc2cc(O)c(C3CCOC3)cc2CC)cccc1Oc1ccccc1C(=O)O` (stereo not shown) [Example 15, 2-(3-{3-[2-Ethyl-5-hydroxy-4-(tetrahydrofuran-3-yl)phenoxy]propoxy}-2-propylphenoxy)benzoic acid sodium salt hemihydrate], for which the IC50 in series [1] (setting [3]) worked out at 27 nM.
Consider `CCCc1c(OCCCOc2cc(O)c(-c3ccoc3)cc2CC)cccc1Oc1ccccc1C(=O)O` [Example 14], for which the IC50 in series [1] (setting [2]) came out at 31 nM; in series [1] (setting [5]) it was 30 nM.
Consider `CCCc1c(OCCCOc2cc(O)c(-c3cccs3)cc2CC)cccc1Oc1ccccc1C(=O)O` [Example 9, 2-{3-[3-(2-Ethyl-5-hydroxy-4-thiophen-2-yl-phenoxy)propoxy]-2-propyl-phenoxy}benzoic acid sodium salt], for which the IC50 in series [1] (setting [3]) turned out to be 23 nM; in series [1] (setting [4]), 20 nM.
Turning to `CCCc1c(OCCCOc2cc(O)c(-c3nc(Br)ns3)cc2CC)cccc1Oc1ccccc1C(=O)O` [Example 8, 2-(3-{3-[4-(3-bromo-[1,2,4]thiadiazol-5-yl)-2-ethyl-5-hydroxyphenoxy]propoxy}-2-propylphenoxy)benzoic acid], the IC50 in series [1] (setting [2]) is above 50000 nM.
As to `CCCc1c(OCCCOc2cc(O)c(C3CCCN3)cc2CC)cccc1Oc1ccccc1C(=O)O` (stereo not shown) [Example 16, 2-{3-[3-(2-Ethyl-5-hydroxy-4-pyrrolidin-2-yl-phenoxy)propoxy]-2-propyl-phenoxy}benzoic acid hydrochloride hydrate], the IC50 is 1080 nM in series [1] (setting [2]) and 837 nM in series [1] (isolated human neutrophils, 3 nM LTB4, semicolons separate individual assay determinations, hydrochloride hydrate, read-out: CD11b/CD18 IC50).
On to `CCCc1c(OCCCOc2cc(O)c(-c3ccc(F)cc3)cc2CC)cccc1Oc1ccccc1C#N` [Compound B, reference compound], for which, in series [1] (comparison compounds, isolated human neutrophils, 3 nM LTB4, A = average of 3 tests), the “IC-50 (nM) ± SEM” value is listed as “not active”.
